Values quoted from earlier work as cited in patent US11872314B2, “Pharmaceutical compositions” (Shin Nippon Biomedical Laboratories, Ltd., priority 2016, dated 2024).

Details: at 25° C.

**Q.** With `COc1ccc2c(c1)c(CC(=O)O)c(C)n2C(=O)c1ccc(Cl)cc1` [Indomethacin, indomethacin] as the compound, how does the Water solbility read?
**A.** 0.937 µg/mL
